Assay results from ChEMBL document CHEMBL1201862, “PubChem BioAssay data set” (2004).
The source made the active and inactive calls.

What was measured:
[1] = luciferase reporter signal suppression in cells – H4 neuroglioma cells, luminescence, dose response (AID 1990); assay type: functional, cell-based
[2] = Luminescence Cell-Based Dose Response HTS to Identify Inhibitors of 5'UTR Stem-Loop Driven Prion Protein mRNA Translation in H4 Neuroglioblastoma Cells. [Related pubchem assays: 1827 (Project Summary), 1813 (Primary HTS)]; assay type: functional
[3] = alpha-synuclein stem-loop luciferase translation blockers – H4 neuroglioma cells, luminescence, confirmation (AID 1988); assay type: functional, cell-based
HEK293 = experiment: EBV LMP1 TES2 canonical NF-kB signalling blockers – cell-based, HEK293, luciferase, cherry-pick, dose response (AID 588343); assay type: functional; details: Homo sapiens
[4] = molecular target: T1, Apoptotic protease-activating factor 1 (Homo sapiens, UniProt O14727); assay type: functional
T1 sequence (O14727 whole entry): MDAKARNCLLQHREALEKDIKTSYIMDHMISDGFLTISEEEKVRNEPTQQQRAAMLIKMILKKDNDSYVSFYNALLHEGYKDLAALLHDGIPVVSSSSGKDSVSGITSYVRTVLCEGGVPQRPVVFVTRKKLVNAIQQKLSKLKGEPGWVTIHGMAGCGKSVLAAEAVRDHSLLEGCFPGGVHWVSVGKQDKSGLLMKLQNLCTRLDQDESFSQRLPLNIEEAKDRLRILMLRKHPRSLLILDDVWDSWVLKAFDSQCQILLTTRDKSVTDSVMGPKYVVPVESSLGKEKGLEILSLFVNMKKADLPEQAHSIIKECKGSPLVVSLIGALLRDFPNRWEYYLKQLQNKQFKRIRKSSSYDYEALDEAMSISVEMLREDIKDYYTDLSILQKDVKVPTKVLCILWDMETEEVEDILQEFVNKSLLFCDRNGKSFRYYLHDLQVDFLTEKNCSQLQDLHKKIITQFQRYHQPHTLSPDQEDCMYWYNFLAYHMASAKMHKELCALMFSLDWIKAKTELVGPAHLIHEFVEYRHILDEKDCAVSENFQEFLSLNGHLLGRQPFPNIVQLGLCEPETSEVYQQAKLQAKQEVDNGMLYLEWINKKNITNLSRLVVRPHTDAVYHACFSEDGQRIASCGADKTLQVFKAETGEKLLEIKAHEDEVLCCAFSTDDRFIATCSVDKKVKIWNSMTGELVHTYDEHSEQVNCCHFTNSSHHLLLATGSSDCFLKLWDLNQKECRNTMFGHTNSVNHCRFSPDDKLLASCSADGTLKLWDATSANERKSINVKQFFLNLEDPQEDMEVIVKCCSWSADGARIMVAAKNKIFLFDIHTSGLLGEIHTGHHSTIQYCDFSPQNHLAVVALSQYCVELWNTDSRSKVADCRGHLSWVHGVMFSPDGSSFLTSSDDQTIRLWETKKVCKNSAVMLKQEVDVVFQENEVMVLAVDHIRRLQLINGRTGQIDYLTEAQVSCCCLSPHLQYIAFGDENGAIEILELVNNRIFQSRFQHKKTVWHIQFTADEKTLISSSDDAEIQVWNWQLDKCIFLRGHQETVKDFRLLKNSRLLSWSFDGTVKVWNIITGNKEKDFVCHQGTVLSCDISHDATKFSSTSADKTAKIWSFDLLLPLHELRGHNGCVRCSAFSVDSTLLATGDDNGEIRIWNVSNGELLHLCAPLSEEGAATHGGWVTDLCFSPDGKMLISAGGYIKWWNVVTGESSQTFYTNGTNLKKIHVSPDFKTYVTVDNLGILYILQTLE

[5] = IC50 of Artemis nuclease activity blockers – biochemical, fluorescence intensity, dose response (AID 720701); assay type: functional;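 note: Artemis endonuclease enzyme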
Candida albicans [6] = experiment: fluconazole-resistant Candida strain growth inhibitors – CaCi-8 strain, dry powder, set 4, dose response (AID 488950); assay type: functional, organism-based
Candida albicans [7] = experiment: Candida growth reduction in fluconazole presence – CaCi-2 strain, Alamar Blue, dry powder, set 2, antifungal resistance reversal project, dose response (AID 488930); assay type: functional, organism-based
Candida albicans [8] = experiment: C. albicans growth inhibition with fluconazole – CaCi-2 strain, Alamar Blue, dry powder, set 4, dose response (AID 488943); assay type: functional, organism-based
Candida albicans [9] = experiment: resistant Candida growth with fluconazole co-treatment – CaCi-8 strain, Alamar Blue, dry powder, set 2, dose response (AID 488909); assay type: functional, organism-based
INS1 [10] = experiment: suppression of cytokine-induced beta-cell apoptosis – INS-1E, caspase luminescence, dry powder, beta-cell apoptosis inhibitor project, dose response (AID 488848); assay type: functional, cell-based; details: Rattus norvegicus
[11] = molecular target: Short transient receptor potential channel 6 (Mus musculus, UniProt Q61143); experiment: mouse TRPC6 channel blockers, concentration series – HEK293 cells, membrane potential dye, IC50, selectivity assay for selective TRPC4 inhibitor project, dose response (AID 492987); assay type: functional, cell-based
Sequence of Short transient receptor potential channel 6 (Q61143 whole entry): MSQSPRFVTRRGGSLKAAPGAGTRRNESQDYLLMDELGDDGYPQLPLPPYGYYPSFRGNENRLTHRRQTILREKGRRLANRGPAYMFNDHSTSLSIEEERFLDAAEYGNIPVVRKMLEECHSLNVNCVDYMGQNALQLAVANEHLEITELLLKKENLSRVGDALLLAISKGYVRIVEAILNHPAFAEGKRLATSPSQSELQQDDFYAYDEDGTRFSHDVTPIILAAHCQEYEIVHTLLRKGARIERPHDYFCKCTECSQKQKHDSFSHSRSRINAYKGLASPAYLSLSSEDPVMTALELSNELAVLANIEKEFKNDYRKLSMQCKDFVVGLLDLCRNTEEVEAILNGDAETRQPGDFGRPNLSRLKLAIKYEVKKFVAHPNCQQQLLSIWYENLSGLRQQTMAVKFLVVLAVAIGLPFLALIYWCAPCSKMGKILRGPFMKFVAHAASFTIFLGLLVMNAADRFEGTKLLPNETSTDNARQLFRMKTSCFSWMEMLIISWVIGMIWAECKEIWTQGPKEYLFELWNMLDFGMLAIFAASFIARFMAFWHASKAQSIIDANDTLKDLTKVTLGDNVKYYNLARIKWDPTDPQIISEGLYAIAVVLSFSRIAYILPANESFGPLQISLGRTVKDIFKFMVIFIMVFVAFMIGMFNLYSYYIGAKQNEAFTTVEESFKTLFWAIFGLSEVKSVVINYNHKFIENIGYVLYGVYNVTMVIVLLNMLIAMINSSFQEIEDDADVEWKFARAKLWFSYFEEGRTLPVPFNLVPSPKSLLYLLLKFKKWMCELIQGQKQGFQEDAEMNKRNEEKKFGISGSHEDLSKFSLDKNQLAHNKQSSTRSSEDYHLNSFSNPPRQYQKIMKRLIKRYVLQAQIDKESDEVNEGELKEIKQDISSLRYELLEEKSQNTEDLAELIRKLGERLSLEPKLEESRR

[12] = NIH-3T3 fibroblast cytotoxicity, dose response, cytotoxicity control, cell-based, fluorescence, Alamar Blue, secondary assay (AID 2327); assay type: functional;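 note: NIH-3T3 mouse fibroblasts cultured with fluconazole at 8 µg/mL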
[13] = fluconazole-exposed Candida albicans growth modulators – fluorescence, retest, confirmation (AID 2467); assay type: functional, cell-based
[14] = Trypanosoma cruzi growth suppression in host cells – NIH3T3 host cells, beta-gal luminescence, confirmation (AID 2044); assay type: functional, cell-based;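 note: intracellular parasites grown in NIH/3T3 mouse fibroblasts as host cells; luminescent beta-galactosidase reporter signal from transgenic T. cruzi replicating inside host cells; inhibitors lower the luminescence signal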
[15] = molecular target: Serine/threonine-protein phosphatase (Candida dubliniensis (strain CD36 / CBS 7987 / NCPF 3949 / NRRLY-17841) (Yeast), UniProt B9W6M3); experiment: blockers of CaCl2-induced CDRE-lacZ signaling – S. cerevisiae, luminescence, secondary, dose response (AID 2388); assay type: functional, cell-based;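 note: yeast reporter cells carrying a calcineurin-responsive lacZ construct stimulated with calcium chloride; luminescent beta-galactosidase reporter signal in whole cells rather than isolated phosphatase activity; potency for inhibition where a drop in reporter signal means calcineurin blockade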
Sequence of Serine/threonine-protein phosphatase (B9W6M3 whole entry): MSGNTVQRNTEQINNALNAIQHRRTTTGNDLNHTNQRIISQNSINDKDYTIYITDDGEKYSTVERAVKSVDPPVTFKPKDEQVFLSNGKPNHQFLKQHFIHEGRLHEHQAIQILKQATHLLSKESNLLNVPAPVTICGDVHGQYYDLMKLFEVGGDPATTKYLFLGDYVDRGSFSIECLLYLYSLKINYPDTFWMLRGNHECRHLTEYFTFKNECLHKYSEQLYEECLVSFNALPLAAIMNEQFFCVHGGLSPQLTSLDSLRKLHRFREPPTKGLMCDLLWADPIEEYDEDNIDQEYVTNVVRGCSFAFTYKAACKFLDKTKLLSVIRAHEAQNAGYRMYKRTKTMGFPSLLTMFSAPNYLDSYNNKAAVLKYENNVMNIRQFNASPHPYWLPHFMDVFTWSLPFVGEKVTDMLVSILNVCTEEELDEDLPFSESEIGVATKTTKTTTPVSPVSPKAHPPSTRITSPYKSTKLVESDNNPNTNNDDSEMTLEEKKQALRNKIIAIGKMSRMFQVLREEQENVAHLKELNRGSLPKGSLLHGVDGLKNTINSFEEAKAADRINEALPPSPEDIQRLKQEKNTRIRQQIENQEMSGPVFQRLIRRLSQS

[16] = NIH3T3 cell viability loss – ATP luminescence, mouse fibroblasts, counter-screen, dose response (AID 2010); assay type: functional, cell-based;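 note: cells exposed to compound for about 90 hours before reading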
[17] = molecular target: T2, Replicative DNA helicase DnaB (Mycobacterium tuberculosis, UniProt P9WMR3); experiment: DnaB intein splicing inhibitors, dose response, biochemical, cell-free fluorescence (AID 449749); assay type: functional
T2 sequence (P9WMR3 whole entry): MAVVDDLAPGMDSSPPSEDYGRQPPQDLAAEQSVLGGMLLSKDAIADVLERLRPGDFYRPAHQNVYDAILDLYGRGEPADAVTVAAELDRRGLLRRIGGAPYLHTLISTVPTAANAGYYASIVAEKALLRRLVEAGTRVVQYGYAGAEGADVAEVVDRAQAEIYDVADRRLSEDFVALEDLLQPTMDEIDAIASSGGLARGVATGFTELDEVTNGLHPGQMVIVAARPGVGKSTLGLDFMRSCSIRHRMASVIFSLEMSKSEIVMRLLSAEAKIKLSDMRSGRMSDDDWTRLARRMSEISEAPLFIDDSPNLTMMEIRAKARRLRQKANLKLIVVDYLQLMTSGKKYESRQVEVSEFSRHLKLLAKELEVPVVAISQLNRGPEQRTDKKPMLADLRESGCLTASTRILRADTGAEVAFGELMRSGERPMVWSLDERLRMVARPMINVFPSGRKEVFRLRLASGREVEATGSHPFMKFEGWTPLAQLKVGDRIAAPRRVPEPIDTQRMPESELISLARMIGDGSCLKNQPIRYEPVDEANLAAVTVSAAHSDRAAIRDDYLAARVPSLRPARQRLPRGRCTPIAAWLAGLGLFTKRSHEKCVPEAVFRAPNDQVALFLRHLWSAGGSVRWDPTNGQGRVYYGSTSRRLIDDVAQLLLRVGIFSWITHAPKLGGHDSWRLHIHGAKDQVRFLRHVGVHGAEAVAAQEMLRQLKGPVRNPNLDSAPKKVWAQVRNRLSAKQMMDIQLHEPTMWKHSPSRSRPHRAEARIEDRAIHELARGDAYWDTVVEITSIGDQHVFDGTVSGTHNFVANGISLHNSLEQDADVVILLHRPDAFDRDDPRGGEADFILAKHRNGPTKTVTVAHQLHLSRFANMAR

Protein RecA = molecular target: T3, Protein RecA (Mycobacterium tuberculosis, UniProt P9WHJ3); experiment: Fluorescence Cell-Free Homogeneous Dose Retest to Identify Inhibitors of RecA-Intein Splicing Activity. [Related pubchem assays (depositor defined):AID2097, AID2223, AID489010, AID492950]; assay type: functional
T3 sequence (P9WHJ3 whole entry): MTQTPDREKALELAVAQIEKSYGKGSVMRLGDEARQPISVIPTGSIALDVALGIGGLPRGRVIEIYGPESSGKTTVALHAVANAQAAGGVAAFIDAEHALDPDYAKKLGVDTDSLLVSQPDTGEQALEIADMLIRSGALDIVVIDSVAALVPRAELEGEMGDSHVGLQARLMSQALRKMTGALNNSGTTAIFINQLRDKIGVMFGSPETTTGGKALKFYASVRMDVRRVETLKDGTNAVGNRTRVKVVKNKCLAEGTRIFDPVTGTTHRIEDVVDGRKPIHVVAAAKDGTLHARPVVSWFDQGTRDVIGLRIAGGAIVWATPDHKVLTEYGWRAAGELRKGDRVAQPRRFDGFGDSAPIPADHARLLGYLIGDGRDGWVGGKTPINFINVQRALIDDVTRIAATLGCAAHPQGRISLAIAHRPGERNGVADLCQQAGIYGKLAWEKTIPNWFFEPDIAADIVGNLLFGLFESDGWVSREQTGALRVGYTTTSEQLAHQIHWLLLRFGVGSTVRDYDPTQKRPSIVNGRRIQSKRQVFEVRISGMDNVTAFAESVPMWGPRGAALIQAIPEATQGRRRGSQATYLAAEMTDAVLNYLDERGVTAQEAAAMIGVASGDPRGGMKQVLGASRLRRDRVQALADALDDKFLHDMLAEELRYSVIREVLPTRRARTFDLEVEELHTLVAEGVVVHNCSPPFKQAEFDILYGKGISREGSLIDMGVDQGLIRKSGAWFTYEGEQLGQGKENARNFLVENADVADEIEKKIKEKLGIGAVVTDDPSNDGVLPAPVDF

INS1 [18] = experiment: INS-1E survival protection against cytokine death – cell-based, luminescence, retest, dose response (AID 449756); assay type: functional; details: Rattus norvegicus, INS1;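 note: cell death triggered by IL-1 beta plus TNF-alpha plus IFN-gamma mixture; protective hits raise ATP signal compared with cytokine alone wells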
[19] = molecular target: ATP-dependent molecular chaperone HSP82 (Candida albicans (strain WO-1) (Yeast), UniProt C4YTQ8); experiment: steroid-induced GRE reporter decrease in yeast – S. cerevisiae, luminescence, Hsp90 inhibitor project, dose response (AID 2400); assay type: functional, cell-based;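 note: beta-galactosidase luminescence from glucocorticoid response element reporter as proxy for Hsp90 function; inhibitor potency where signal loss means Hsp90 inhibition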
Sequence of ATP-dependent molecular chaperone HSP82 (C4YTQ8 whole entry): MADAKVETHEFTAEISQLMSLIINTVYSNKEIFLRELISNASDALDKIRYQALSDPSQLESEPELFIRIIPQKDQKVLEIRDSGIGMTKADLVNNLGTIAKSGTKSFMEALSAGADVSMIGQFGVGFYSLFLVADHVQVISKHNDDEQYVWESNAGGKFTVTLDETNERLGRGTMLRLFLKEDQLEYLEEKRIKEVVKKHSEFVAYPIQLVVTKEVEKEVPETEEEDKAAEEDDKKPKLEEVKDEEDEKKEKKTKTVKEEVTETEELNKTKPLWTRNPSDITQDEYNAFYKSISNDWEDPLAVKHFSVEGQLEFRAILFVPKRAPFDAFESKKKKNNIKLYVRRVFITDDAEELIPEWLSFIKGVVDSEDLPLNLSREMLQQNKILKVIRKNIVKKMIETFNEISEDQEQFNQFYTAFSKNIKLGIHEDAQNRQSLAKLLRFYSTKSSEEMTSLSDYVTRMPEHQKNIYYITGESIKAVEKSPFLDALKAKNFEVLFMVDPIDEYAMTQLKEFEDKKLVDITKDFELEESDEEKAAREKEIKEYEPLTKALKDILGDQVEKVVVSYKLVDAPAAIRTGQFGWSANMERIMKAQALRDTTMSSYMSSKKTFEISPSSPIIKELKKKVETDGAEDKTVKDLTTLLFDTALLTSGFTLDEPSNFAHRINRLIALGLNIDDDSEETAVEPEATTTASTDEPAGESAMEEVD

Clc1ccc(-c2cn3nc4c(nc3n2)CCCC4)cc1
EC50 [1]: 3.45 µM (active)
EC50 [2]: 5.88 µM (active)
EC50 [3]: 1.51 µM (active)
AC50 (HEK293): 1.45 µM (active)
IC50 [4]: 17.5 µM (active)
IC50 [5]: > 20 µM (inactive)

O=C(c1cccc(Cl)c1)N1CCN(c2ccnc3cc(Cl)ccc23)CC1
AC50 (Candida albicans [6]): 2.43 µM (active)
AC50 (Candida albicans [7]): 2.33 µM (active)
AC50 (Candida albicans [8]): 2.75 µM (active)
AC50 (Candida albicans [9]): 8.31 µM (active)

COc1ccc(S(=O)(=O)N(C)C[C@@H]2Oc3c(NC(=O)Nc4cccc5c4ccn5C)cccc3C(=O)N([C@@H](C)CO)C[C@H]2C)cc1
AC50 (INS1 [10]): 17.5 µM (active)

FC(F)(F)c1cc(N2CCCC2)nc2ccccc12
IC50 [11]: 23.1 µM (active)

COc1ccccc1NC1=C(N2CCCCC2)C(=O)c2ccccc2C1=O
EC50 [12]: 41.7 µM (active)
EC50 [13]: 1.02 µM (active)
EC50 [14]: 0.56 µM (active)
EC50 [15]: > 180 µM (inactive)
EC50 [16]: > 30 µM (not active)
AC50 [17]: 18.6 µM (active)
IC50 [4]: 3.32 µM (active)
EC50 (Protein RecA): 1.51 µM (active)
AC50 (INS1 [18]): 0.916 µM (active)
EC50 [19]: > 160 µM (inactive)
